Each structure is given as a SMILES string.

The test system of assay [1] is HEK293 stably transfected cell line. Kind of assay: Intracellular NAD+ change in HEK293 cell line stably expressing probe NADS1.0 (590/440 emitted light ratio). In kind it is cell-based. The settings on record: final concentration 10 nM, 24 h treatment. Here is the method:
The NAD+ molecular probe provided by the invention can detect changes in the concentration of NAD+ molecules in cells. The coding gene of this probe (NADS1.0) is cloned into the pCDH-CMV-MCS-EF1-Neo vector, and the HEK293 stably transfected cell line is prepared using lentiviral method. […] After 24 h of treatment with the compounds, the DMEM medium (high sugar, phenol red free) is changed to fresh DMEM medium (high sugar, phenol red free, bioluminescent substrate diluted by 1,000-fold) with bioluminescent substrate. The emitted light intensity at 590 nm and 440 nm is measured using Flex Station3 multifunctional microplate reader. According to the detection principle of the probe, the ratio of emitted light intensity at 590 nm and 440 nm indicates the NAD+ concentration in living cells. It is found in the detection that the ratio decreased in cells treated with FK866, indicating a decrease in intracellular NAD+ concentration, while in the NRH-treated cells, the ratio increased, indicating an increase in intracellular NAD+ concentration.

Assay [2] has as its target T1, NAD+ probe NADS1.2 (mScarlet mutant-LigA mutant-cpNluc mutant fusion), SEQ ID NO. 7; LigA mutant 1 (DNA ligase LigA mutant), SEQ ID NO. 3 (Enterococcus faecalis, UniProt Q837V6, D286N/K120L/R163D/R68N).
T1 construct: purified BRET probe NADS1.2
Kind of assay: Response of NAD+ molecular probe NADS1.2 to NAD+ and different NAD+ analogs. In kind it is binding. To be noted: for response of probe / dynamic range of probe response: NADS1.2, NAD+ analogs, 590/440 nm ratio; for dynamic range of probe response: in words.

Assay [3] concerns the target T2, NAD+ probe NADS2.0 (mNeoGreen mutant-LigA mutant-cpNluc mutant fusion), SEQ ID NO. 9; LigA mutant SEQ ID NO. 3 (Enterococcus faecalis, UniProt Q837V6, D286N/K120L/R163D/R68N).
T2 construct: purified BRET probe NADS2.0
Kind of assay: NAD+ titration of purified BRET probe NADS2.0. To be noted: 515/440 nm light intensity ratio. In kind it is binding. The text has this:
The sequence of NADS^2.0 is shown as SEQ ID NO. 9
mNeoGreen mutant-LigA mutant-cpNluc mutant
The sequence of LigA1 mutant is shown as SEQ ID NO.
A general note: In BRET a luciferase serves as donor, and the signal depends on an acceptor being close.

In assay [4] the target is T3, NAD+ probe NADS3.0 (mScarlet mutant-LigA mutant-mNeoGreen mutant fusion), SEQ ID NO. 11; LigA mutant 1 SEQ ID NO. 3 (Enterococcus faecalis, UniProt Q837V6, D286N/K120L/R163D/R68N).
T3 construct: purified FRET probe NADS3.0
T3 sequence (Q837V6 6-317 R68N/K120L/R163D/D286N): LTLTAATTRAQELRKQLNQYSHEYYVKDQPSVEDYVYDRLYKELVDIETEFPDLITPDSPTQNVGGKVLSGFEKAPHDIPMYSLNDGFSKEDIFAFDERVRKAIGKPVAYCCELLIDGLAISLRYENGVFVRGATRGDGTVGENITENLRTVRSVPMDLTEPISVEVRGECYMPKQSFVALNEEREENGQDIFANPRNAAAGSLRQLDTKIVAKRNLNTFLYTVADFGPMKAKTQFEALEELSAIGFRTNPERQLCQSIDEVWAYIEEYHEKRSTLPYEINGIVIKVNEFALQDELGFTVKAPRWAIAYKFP
The experiment in a line: NAD+ titration of purified FRET probe NADS3.0. In kind it is binding. The settings on record: 585/515 nm ratio, excitation 470 nm. The text has this:
The sequence of NADS3.0 is shown as SEQ ID NO. 11
mScarlet mutant-LigA mutant-mNeoGreen mutant
The sequence of LigA mutant 1 is shown as SEQ ID NO.

Assay [5] concerns NAD+ molecular probe NAD1.2. The experiment in a line: Response of NAD+ molecular probe to different NAD+ analogs (590/440 ratio titration). In kind it is biochemical. The settings on record: FIG. 4. The procedure: (2) Add 80 μL of probe solution, 10 μL of NAD+ solution or 10 μL of NAD+ analogs solution, and 10 μL of bioluminescent substrate solution into the white 96-well elisa plate, blowing, suction, and mix immediately several times (at least 8 times) with multi-channel pipette; use Flex Station3 multifunctional microplate reader to read the light intensity values at the wavelengths of 440 nm and 590 nm under the luminescence mode, and monitor the values for 5 min continuously, and the average receptor-to-donor luminescence ratio is calculated for this time period.

T1 sequence (Q837V6 6-317 R68N/K120L/R163D/D286N): as above
T2 sequence (Q837V6 6-317 R68N/K120L/R163D/D286N): as above

For `O=C(/C=C/c1cccnc1)NCCCCC1CCN(C(=O)c2ccccc2)CC1` [FK866], in assay [1], the “ratio of emitted light intensity at 590 nm and 440 nm (indicates intracellular NAD+ concentration)” value is “decreased”.
Take `NC(=O)C1=CN([C@@H]2O[C@H](COP(=O)(O)OP(=O)(O)OC[C@H]3O[C@@H](n4cnc5c(N)ncnc54)[C@H](OP(=O)(O)O)[C@@H]3O)[C@@H](O)[C@H]2O)C=CC1` [NADPH]: in assay [2], the response of probe entry is “did not respond”.
On to `NC(=O)c1ccc[n+]([C@@H]2O[C@H](COP(=O)([O-])OP(=O)(O)OC[C@H]3O[C@@H](n4cnc5c(N)ncnc54)[C@H](O)[C@@H]3O)[C@@H](O)[C@H]2O)c1` [NAD+], for which the results for the dynamic range in assay [3] and in assay [4] were 1.8 fold and 1.21 fold, respectively.
Usually EC50 stands for the midpoint of the concentration-response curve. In turn, `NC(=O)C1=CN([C@@H]2O[C@H](COP(=O)(O)OP(=O)(O)OC[C@H]3O[C@@H](n4cnc5c(N)ncnc54)[C@H](O)[C@@H]3O)[C@@H](O)[C@H]2O)C=CC1` [NADH] had an EC50 in assay [2] of more than 1 mM.
For the compound `NC(=O)c1cccnc1` [NAM], the response of probe result in assay [2] is recorded as “did not respond”.
For `NC(=O)c1ccc[n+]([C@@H]2O[C@H](COP(=O)([O-])O)[C@@H](O)[C@H]2O)c1` [NMN], the “dynamic range of the probe response to the analog” value in assay [5] is listed as “small”. For the same compound, the “dynamic range of probe response” value in assay [2] is listed as “small dynamic range”.
Regarding `NC(=O)c1ccc[n+]([C@@H]2O[C@H](COP(=O)([O-])OP(=O)(O)OC[C@H]3O[C@@H](n4cnc5c(N)ncnc54)[C@H](OP(=O)(O)O)[C@@H]3O)[C@@H](O)[C@H]2O)c1` [NADP+], the “dynamic range of the probe response to the analog” value in assay [5] is “small”. Further, in assay [2], the “dynamic range of probe response” value is given as “small dynamic range”.
